Laboratory results: the supplement of paper PMC10307832

Assays:
Test in all cases: relative viability (nuclei count vs DMSO), 5 days (fraction); higher = more cells survive
Veliparib + Luminespib = compound: C[C@]1(c2nc3c(C(N)=O)cccc3[nH]2)CCCN1 [Veliparib] + CCNC(=O)c1noc(-c2cc(C(C)C)c(O)cc2O)c1-c1ccc(CN2CCOCC2)cc1 [Luminespib] (partner 0.01 µM)
Summary of the method: (§1)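 Five library-drug doses in √10 steps were combined with a fixed anchor-drug dose, or a single drug was given alone, by pin tool to lung cancer cell lines in 1536-well plates the day after seeding. Nuclei were stained and counted after 5 days. Relative viability is the nuclei count in treated wells over that in vehicle wells, taken as the median of duplicate plates.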

[1] = compound: COC1=CC=C(C=C1)CN2C=CC3=C2C=C(C=C3)C(=O)NO + N=C(N)NC(=N)NCCc1ccccc1 [Phenformin] (partner 250 µM)
Summary of the method: as §1

[2] = compound: COC1=CC=C(C=C1)CN2C=CC3=C2C=C(C=C3)C(=O)NO + C[C@]1(O)C[C@@H](c2nc(-c3ccc4ccc(-c5ccccc5)nc4c3)c3c(N)nccn32)C1 [Linsitinib] (partner 1 µM)
Summary of the method: as §1

[3] = compound: COC1=CC=C(C=C1)CN2C=CC3=C2C=C(C=C3)C(=O)NO + COc1cccc2cc(-c3nc([C@H]4CC[C@H](C(=O)O)CC4)n4ncnc(N)c34)[nH]c12 [OSI-027] (partner 0.5 µM)
Summary of the method: as §1

| Cell Line | relative viability (Veliparib + Luminespib; first compound 0.02 µM) | relative viability (Veliparib + Luminespib; first compound 0.06325 µM) | relative viability (Veliparib + Luminespib; first compound 0.2 µM) | relative viability (Veliparib + Luminespib; first compound 0.6325 µM) | relative viability (Veliparib + Luminespib; first compound 2 µM) | relative viability ([1]; first compound 0.08 µM) | relative viability ([1]; first compound 0.253 µM) | relative viability ([1]; first compound 0.8 µM) | relative viability ([1]; first compound 2.53 µM) | relative viability ([1]; first compound 8 µM) | relative viability ([2]; first compound 0.08 µM) | relative viability ([2]; first compound 0.253 µM) | relative viability ([2]; first compound 0.8 µM) | relative viability ([2]; first compound 2.53 µM) | relative viability ([2]; first compound 8 µM) | relative viability ([3]; first compound 0.08 µM) | relative viability ([3]; first compound 0.253 µM) | relative viability ([3]; first compound 0.8 µM) | relative viability ([3]; first compound 2.53 µM) | relative viability ([3]; first compound 8 µM) |
| --- | --- | --- | --- | --- | --- | --- | --- | --- | --- | --- | --- | --- | --- | --- | --- | --- | --- | --- | --- | --- |
| PC-3 [JPC-3] | 0.65 | 0.711 | 0.753 | 0.662 | 0.66 | 0.5 | 0.464 | 0.475 | 0.495 | 0.497 | 0.963 | 0.962 | 0.97 | 1 | 1.06 | 0.766 | 0.781 | 0.726 | 0.813 | 0.761 |
| A-427 |  | 0.908 | 0.72 | 1.12 | 0.931 |  | 0.344 | 0.357 | 0.314 | 0.235 |  | 1.08 | 1.11 | 1.16 | 1.1 |  | 0.44 | 0.497 | 0.492 | 0.367 |
| LCLC-97TM1 | 0.729 | 0.729 | 0.884 | 0.671 | 0.678 | 0.176 | 0.399 | 0.441 | 0.46 | 0.353 |  | 0.212 | 0.225 | 0.206 | 0.156 | 0.346 | 0.531 | 0.546 | 0.342 | 0.374 |
| NCI-H2085 |  | 0.438 | 0.426 | 0.273 | 0.447 | 0.739 | 0.758 | 0.84 | 0.722 | 0.647 | 0.794 | 0.921 | 0.931 | 0.925 | 0.934 | 0.888 | 0.754 | 0.746 | 0.982 | 0.731 |
| NCI-H1666 | 1.01 | 0.984 | 0.968 | 0.941 | 0.982 | 0.559 | 0.558 | 0.557 | 0.579 | 0.523 | 0.696 | 0.892 | 0.757 | 0.76 | 0.901 | 0.818 | 0.906 | 0.873 | 0.946 | 0.85 |
| 201T | 0.995 | 1.11 | 1.07 | 1.1 | 1.11 | 0.487 | 0.466 | 0.453 | 0.431 | 0.35 | 1.04 | 1.01 | 1.13 | 1.06 | 1.03 | 0.869 | 0.827 | 0.644 |  | 0.71 |
| NCI-H596 | 0.975 | 1.02 | 1.17 | 0.889 | 0.919 | 0.774 | 0.99 | 0.769 | 0.655 | 0.666 | 0.982 | 1.08 | 1.01 | 0.915 | 0.992 | 0.79 | 0.779 | 0.768 | 0.721 | 0.598 |
| LXF-289 | 0.652 | 0.712 | 0.759 | 0.545 | 0.601 |  | 0.554 | 0.517 | 0.512 | 0.508 | 0.456 | 0.951 | 0.998 | 0.986 | 0.959 |  | 0.823 | 0.896 | 0.908 | 0.716 |
| ABC-1 |  | 0.543 | 0.377 | 0.422 | 0.524 |  | 0.216 | 0.246 | 0.296 | 0.234 |  | 0.924 | 0.789 | 0.732 | 0.885 |  | 0.57 | 0.484 | 0.488 | 0.393 |
| NCI-H2087 | 0.167 | 0.188 | 0.152 | 0.14 | 0.145 | 0.396 | 0.448 | 0.442 | 0.404 | 0.374 | 0.902 | 0.969 | 0.95 | 0.883 | 0.921 | 0.626 | 0.632 | 0.592 | 0.561 | 0.347 |
| NCI-H441 | 0.316 | 0.288 | 0.377 | 0.339 | 0.375 | 0.914 | 0.89 | 0.907 | 0.863 | 0.653 | 0.304 | 0.676 | 0.573 | 0.579 | 0.42 | 0.715 | 0.709 | 0.644 | 0.621 | 0.459 |
| NCI-H3122 | 0.0959 | 0.0908 | 0.097 | 0.0912 | 0.0755 |  | 0.324 | 0.393 | 0.382 | 0.337 | 0.975 | 1.04 | 1.03 | 1 | 0.997 |  | 1.01 | 0.945 | 0.93 | 0.908 |
